Assays:
Assay type in all cases: in vivo
[1] = system: Zea mays; experiment: Post-emergence crop plant compatibility; details: application rate 1.25 g/ha
Procedure: (§1) Seeds of monocotyledonous and dicotyledonous weeds and crop plants were placed in sandy loam in plastic or wood-fiber pots, covered with soil and cultivated in a greenhouse under controlled growth conditions. 2 to 3 weeks after sowing, the test plants were treated at the one-leaf stage. The compounds of the invention, formulated in the form of wettable powders (WP) or as emulsion concentrates (EC), were then sprayed onto the green parts of the plants as aqueous suspension or emulsion with addition of 0.5% additive at a water application rate of […] (converted). After the test plants had been kept in the greenhouse under optimum growth conditions for about 3 weeks, the activity of the preparations was rated visually in comparison to untreated controls. For example, 100% activity=the plants have died, 0% activity=like control plants.
(§2) Here, the observed effects on selected crop plants are stated in comparison to the untreated controls (values in %).

[2] = system: Triticum aestivum; experiment: Post-emergence crop plant compatibility; details: application rate 1.25 g/ha
Procedure: as §1, §2

[3] = system: Oryza sativa; experiment: Post-emergence crop plant compatibility
Procedure: as §1, §2

[4] = system: Abutilon theophrasti; experiment: Post-emergence herbicidal action
Procedure: as §1, with “plants. Tables A1 to A14 below show the effects of selected compounds of the general formula (I) according to Tables I.1 to I.34 on various harmful plants and at an application rate corresponding to 20 g/ha and less, which were obtained by the experimental procedure mentioned above.” for “plants.”

[5] = system: Polygonum convolvulus; experiment: Post-emergence herbicidal action; details: Fallopia convolvulus, 504 h, read-out: Polygonum convolvulus (efficacy in %)
Procedure: as §1, with “plants. Tables A1 to A14 below show the effects of selected compounds of the general formula (I) according to Tables I.1 to I.34 on various harmful plants and at an application rate corresponding to 20 g/ha and less, which were obtained by the experimental procedure mentioned above.” for “plants.”

[6] = system: Digitaria sanguinalis; experiment: Post-emergence herbicidal action; details: 504 h, read-out: Digitaria sanguinalis (efficacy in %)
Procedure: as §1, with “plants. Tables A1 to A14 below show the effects of selected compounds of the general formula (I) according to Tables I.1 to I.34 on various harmful plants and at an application rate corresponding to 20 g/ha and less, which were obtained by the experimental procedure mentioned above.” for “plants.”

[7] = system: Echinochloa crus-galli; experiment: Post-emergence herbicidal action
Procedure: as §1, with “plants. Tables A1 to A14 below show the effects of selected compounds of the general formula (I) according to Tables I.1 to I.34 on various harmful plants and at an application rate corresponding to 20 g/ha and less, which were obtained by the experimental procedure mentioned above.” for “plants.”

[8] = system: Alopecurus myosuroides; experiment: Post-emergence herbicidal action
Procedure: as §1, with “plants. Tables A1 to A14 below show the effects of selected compounds of the general formula (I) according to Tables I.1 to I.34 on various harmful plants and at an application rate corresponding to 20 g/ha and less, which were obtained by the experimental procedure mentioned above.” for “plants.”

[9] = system: Pharbitis purpurea; experiment: Post-emergence herbicidal action
Procedure: as §1, with “plants. Tables A1 to A14 below show the effects of selected compounds of the general formula (I) according to Tables I.1 to I.34 on various harmful plants and at an application rate corresponding to 20 g/ha and less, which were obtained by the experimental procedure mentioned above.” for “plants.”

[10] = system: Matricaria inodora; experiment: Post-emergence herbicidal action
Procedure: as §1, with “plants. Tables A1 to A14 below show the effects of selected compounds of the general formula (I) according to Tables I.1 to I.34 on various harmful plants and at an application rate corresponding to 20 g/ha and less, which were obtained by the experimental procedure mentioned above.” for “plants.”

[11] = system: Avena fatua; experiment: Post-emergence herbicidal action; details: application rate 20 g/ha
Procedure: as §1, with “plants. Tables A1 to A14 below show the effects of selected compounds of the general formula (I) according to Tables I.1 to I.34 on various harmful plants and at an application rate corresponding to 20 g/ha and less, which were obtained by the experimental procedure mentioned above.” for “plants.”

[12] = system: Setaria viridis; experiment: Post-emergence herbicidal action; details: 504 h, read-out: Setaria viridis (efficacy in %)
Procedure: as §1, with “plants. Tables A1 to A14 below show the effects of selected compounds of the general formula (I) according to Tables I.1 to I.34 on various harmful plants and at an application rate corresponding to 20 g/ha and less, which were obtained by the experimental procedure mentioned above.” for “plants.”

[13] = system: Viola tricolor; experiment: Post-emergence herbicidal action
Procedure: as §1, with “plants. Tables A1 to A14 below show the effects of selected compounds of the general formula (I) according to Tables I.1 to I.34 on various harmful plants and at an application rate corresponding to 20 g/ha and less, which were obtained by the experimental procedure mentioned above.” for “plants.”

[14] = system: Amaranthus retroflexus; experiment: Post-emergence herbicidal action
Procedure: as §1, with “plants. Tables A1 to A14 below show the effects of selected compounds of the general formula (I) according to Tables I.1 to I.34 on various harmful plants and at an application rate corresponding to 20 g/ha and less, which were obtained by the experimental procedure mentioned above.” for “plants.”

[15] = system: Veronica persica; experiment: Post-emergence herbicidal action
Procedure: as §1, with “plants. Tables A1 to A14 below show the effects of selected compounds of the general formula (I) according to Tables I.1 to I.34 on various harmful plants and at an application rate corresponding to 20 g/ha and less, which were obtained by the experimental procedure mentioned above.” for “plants.”

[16] = system: Lolium rigidum; experiment: Post-emergence herbicidal action; details: application rate 20 g/ha
Procedure: as §1, with “plants. Tables A1 to A14 below show the effects of selected compounds of the general formula (I) according to Tables I.1 to I.34 on various harmful plants and at an application rate corresponding to 20 g/ha and less, which were obtained by the experimental procedure mentioned above.” for “plants.”

With `Nn1c(C(F)(F)F)cc(=O)n(-c2cc(Sc3cccnc3OCC(=O)OCc3ccccc3)c(Cl)cc2F)c1=O` [I.1-457, Benzyl {[3-({5-[3-amino-2,6-dioxo-4-(trifluoromethyl)-3,6-dihydropyrimidin-1(2H)-yl]-2-chloro-4-fluorophenyl}sulfanyl)pyridin-2-yl]oxy}acetate] the “Zea mays (efficacy in %)” value [1] was 20%, the “Triticum aestivum (efficacy in %)” value [2] was 20% and the “Oryza sativa (efficacy in %)” value ([3]; application rate 1.25 g/ha) was 0%. The pest or weed control at 5 g/ha ([4]; Abutilon theophrasti, 504 h, application rate 5 g/ha, read-out: Abutilon theophrasti (efficacy in %)) was 100%, the pest or weed control at 20 g/ha ([4]; Abutilon theophrasti, 504 h, application rate 20 g/ha, read-out: Abutilon theophrasti (efficacy in %)) was 100% and the pest or weed control at 5 g/ha ([5]; application rate 5 g/ha) was 100%. For the same compound, the pest or weed control at 20 g/ha ([5]; application rate 20 g/ha) was 100%, the pest or weed control at 5 g/ha ([6]; application rate 5 g/ha) was 100% and the pest or weed control at 20 g/ha ([6]; application rate 20 g/ha) was 100%. The pest or weed control at 5 g/ha ([7]; Echinochloa crus-galli, 504 h, application rate 5 g/ha, read-out: Echinochloa crus-galli (efficacy in %)) was 80%, the pest or weed control at 20 g/ha ([7]; Echinochloa crus-galli, 504 h, application rate 20 g/ha, read-out: Echinochloa crus-galli (efficacy in %)) was 100% and the “Alopecurus myosuroides (efficacy in %)” value ([8]; application rate 5 g/ha) was 80%. The “Alopecurus myosuroides (efficacy in %)” value ([8]; application rate 20 g/ha) was 80%, the pest or weed control at 5 g/ha ([9]; Ipomoea purpurea, 504 h, application rate 5 g/ha, read-out: Pharbitis purpurea (efficacy in %)) was 100% and the pest or weed control at 20 g/ha ([9]; Ipomoea purpurea, 504 h, application rate 20 g/ha, read-out: Pharbitis purpurea (efficacy in %)) was 100%. The pest or weed control at 20 g/ha ([10]; Tripleurospermum inodorum, 504 h, application rate 20 g/ha, read-out: Matricaria inodora (efficacy in %)) was 90%, the “Avena fatua (efficacy in %)” value [11] was 80% and the pest or weed control at 5 g/ha ([12]; application rate 5 g/ha) was 100%. For the same compound, the pest or weed control at 20 g/ha ([12]; application rate 20 g/ha) was 100%, the pest or weed control at 5 g/ha ([13]; Viola tricolor, 504 h, application rate 5 g/ha, read-out: Viola tricolor (efficacy in %)) was 100% and the pest or weed control at 20 g/ha ([13]; Viola tricolor, 504 h, application rate 20 g/ha, read-out: Viola tricolor (efficacy in %)) was 100%. It also gave a pest or weed control at 5 g/ha ([14]; Amaranthus retroflexus, 504 h, application rate 5 g/ha, read-out: Amaranthus retroflexus (efficacy in %)) of 100%, a pest or weed control at 20 g/ha ([14]; Amaranthus retroflexus, 504 h, application rate 20 g/ha, read-out: Amaranthus retroflexus (efficacy in %)) of 100% and a pest or weed control at 5 g/ha ([15]; Veronica persica, 504 h, application rate 5 g/ha, read-out: Veronica persica (efficacy in %)) of 100%. The pest or weed control at 20 g/ha ([15]; Veronica persica, 504 h, application rate 20 g/ha, read-out: Veronica persica (efficacy in %)) was 100%.
For `Nn1c(C(F)(F)F)cc(=O)n(-c2cc(Sc3cccnc3OCC(=O)O)c(Cl)cc2F)c1=O` [I.1-481], the “Triticum aestivum (efficacy in %)” value [2] was 20%, the “Oryza sativa (efficacy in %)” value ([3]; application rate 1.25 g/ha) was 10% and the “Oryza sativa (efficacy in %)” value ([3]; application rate 5 g/ha) was 20%. The “Abutilon theophrasti (efficacy in %)” value ([4]; application rate 5 g/ha) was 100%, the “Abutilon theophrasti (efficacy in %)” value ([4]; application rate 20 g/ha) was 100% and the “Echinochloa crus-galli (efficacy in %)” value ([7]; application rate 5 g/ha) was 90%. The “Echinochloa crus-galli (efficacy in %)” value ([7]; application rate 20 g/ha) was 100%, the “Alopecurus myosuroides (efficacy in %)” value ([8]; application rate 5 g/ha) was 100% and the “Alopecurus myosuroides (efficacy in %)” value ([8]; application rate 20 g/ha) was 100%. For the same compound, the “Pharbitis purpurea (efficacy in %)” value ([9]; application rate 5 g/ha) was 80%, the “Pharbitis purpurea (efficacy in %)” value ([9]; application rate 20 g/ha) was 100% and the “Lolium rigidum (efficacy in %)” value [16] was 80%. For the same compound, the “Matricaria inodora (efficacy in %)” value ([10]; application rate 5 g/ha) was 90%, the “Matricaria inodora (efficacy in %)” value ([10]; application rate 20 g/ha) was 100% and the “Viola tricolor (efficacy in %)” value ([13]; application rate 5 g/ha) was 100%. For the same compound, the “Viola tricolor (efficacy in %)” value ([13]; application rate 20 g/ha) was 100%, the “Amaranthus retroflexus (efficacy in %)” value ([14]; application rate 5 g/ha) was 100% and the “Amaranthus retroflexus (efficacy in %)” value ([14]; application rate 20 g/ha) was 100%. The “Veronica persica (efficacy in %)” value ([15]; application rate 5 g/ha) was 100% and the “Veronica persica (efficacy in %)” value ([15]; application rate 20 g/ha) was 100%.
